# Values of other authors as cited in patent publication US10863763B2, “Prebiotic compositions and uses thereof” (priority 2013, dated 2020).
# Read-outs that look alike come from different tables or passages of the source.
# Assays:
# [1] = 4 h 15 min after administration; 58 normal to slightly overweight women
# [2] = 50% of patty fat replaced, v full fat patty
# [3] = enriched cereal bars, 2 day test period
# [4] = not given; remark: listed apart in the source
# [5] = heating at high temperatures for 60 min
# [6] = not given; remark: listed apart in the source
# [7] = in vivo
# [8] = in vivo; remark: listed apart in the source
# [9] = test system: lactobacilli and bifidobacteria in the faeces; conditions: 4.5 g/d for 21 d; healthy and constipated adults
# [10] = not given; remark: listed apart in the source
# [11] = not given; remark: listed apart in the source
# [12] = test system: anorexic gut peptides (GLP-1 & PYY); conditions: after 2 weeks of supplementation, relative to maltodextrin placebo
# [13] = 8 g/d for 12 months; adolescents, n=97; placebo 1.2
# [14] = 21 g/d, 3 months; BMI >25 kg/m2, n=48; relative to maltodextrin control
# [15] = 16 g/d × 2 wk v maltodextrin placebo
# [16] = meta-analysis, 10 trials, n=489; 95% CI 1.8, 0.4
# [17] = low pH alone or Maillard reaction conditions
# [18] = 11 RCT, overweight and obese adults
compound,measurement,setting,value
inulin,decrease in energy intake at an ad libitum lunch,[1],89.84 kcal
same,measures of satiety,[2],no effect
same,total fat intake and total energy intake on the test day,[2]; 33 males,lower
same,"treatment-related toxicity, genotoxicity or carcinogenicity",animal studies and clinical trial reports,no evidence
same,"detrimental effects on mineral absorption, lipid metabolism or glycaemic control",in vivo,failed to find evidence
same,energy intake or any of the 6 subjective ratings of hunger between treatments,[3],no difference
same,prebiotic activity,[4]; heating at low pH,reduced
same,prebiotic activity,[4]; [17],stable
same,degradation to di-D-fructose dianhydrides,[5],substantial degradation
[Cr] [chromium],mean difference in weight in favour of chromium over placebo,"[6]; 11 RCT, n=866, 95% CI −0.96, −0.03, 137 to 1000 μg/d",-0.5 kg
same,BMI or waist to hip circumference,[6]; [18],no effect
same,percentage body fat,[6]; [18],modest reduction
same,adverse effects in participants,"[6]; disappeared on withdrawal, reappeared on reintroduction","watery stools, vertigo, weakness, nausea, vomiting, dizziness and headaches"
same,adverse effects reported by other authors,[7],"constipation, decreased appetite and urticaria"
glucomannan,safety in toxicological and genotoxicity studies,[8],safe
same,SOFA fatty acid concentrations in the faeces,[9],increased
same,proportion of lactobacilli and bifidobacteria in the faeces,[9],increased
same,weight loss,"[10]; 9 RCT, n=379, trials averaging 5.2 weeks, 95% CI −1.53, −0.05, 1.24 to 15.1 g/d",0.79 kg
same,weight change in the 3 studies supplying glucomannan in biscuits or granola bars,[10]; biscuits or granola bars,failed to report any significant weight change
same,weight loss in obese subjects (mean),[10]; obese subjects,"−1.30 (−1.69, −0.91) kg"
short chain FOS [scFOS],measures of satiety at breakfast or lunch and food intake during an ad libitum lunch,"[11]; two separate doses of 0, 5 and 8 g",failed to alter
same,energy intake over the remainder of the day,[11]; women consuming the 16 g dose,significantly lower
β-glucan [reference compound],energy intake or any of the 6 subjective ratings of hunger between treatments,[3],no difference
fructooligosaccharides [FOS],release of anorexic gut peptides (GLP-1 & PYY) in response to a test meal,[12],minor transient increases
same,"detrimental effects on mineral absorption, lipid metabolism or glycaemic control",in vivo,failed to find evidence
same,"single dose at which GI adverse effects (bloating, flatulence and diarrhoea) become evident",in vivo,> 20 g/day
same,"treatment-related toxicity, genotoxicity or carcinogenicity",in vivo,no evidence
same,increase in BMI over 12 months,[13],0.7 kg/m2
same,weight change,[14],−1.03 (SD 0.43) kg
same,fullness at dinner,[15],increased
same,prospective food intake at dinner,[15],decreased
same,reduction in total energy intake over a 24 hour test period,[15],5%
same,satiety at breakfast and dinner,[15],significantly increased
same,prebiotic activity,[4]; heating at low pH,reduced
same,prebiotic activity,[4]; [17],stable
chromium picolinate,weighted mean difference in weight in favour of chromium picolinate over placebo,[16],1.1 kg
